Converted amounts (≈) assume the structure as drawn. Where two headings read alike, the source gives them in different places.
Tests used:
Assay in all cases: Minimum inhibitory concentration (MIC)
Type in all cases: cell-based
[1] = tested on: Acinetobacter calcoaceticus AC 54; details: Acinetobacter calcoaceticus, AC54, Acinetobacter calcoaceticus AC 54, Gram -
Procedure: (§1) The compounds of the present invention (A, C, E, F, G, H and I) and ofloxacin as control were dissolved in 0.1N aqueous potassium hydroxide to prepare a solution of 5000 μg/ml in concentration. The compounds of the present invention (B, D and J) were dissolved in sterilized distilled water to prepare a solution of 5000 μg/ml in concentration. Each solution was diluted with sterilized distilled water to prepare a standard solution with a concentration of each test compound: 1000 μg/ml. The test was carried out by a method approved by Japan Society of Chemotherapy [cf. Chemotherapy, 29, 76-79 (1981)(TOKYO)].

[2] = tested on: Bacillus subtilis ATCC 6633
Procedure: as §1

[3] = tested on: Citrobacter freundii NIHJ 10018-68; details: NIHJ10018; Citrobacter freundii NIHJ 10018-68, Gram -
Procedure: as §1

[4] = tested on: Enterobacter aerogenes ATCC 13048; details: Klebsiella aerogenes, ATCC13048, Enterobacter aerogenes ATCC 13048, Gram -
Procedure: as §1

Enterobacter cloacae 963 = details: Enterobacter cloacae 963, Gram -
Procedure: as §1

Escherichia coli KC-14 = details: KC14; Escherichia coli KC-14, Gram -
Procedure: as §1

[5] = tested on: Escherichia coli NIHJ JC-2; details: NIHJJC2; Escherichia coli NIHJ JC-2, Gram -
Procedure: as §1

[6] = tested on: Klebsiella pneumoniae PCI 602; details: Klebsiella pneumoniae
Procedure: as §1

[7] = tested on: Micrococcus luteus ATCC 9341; details: ATCC9341; Micrococcus luteus ATCC 9341, Gram +
Procedure: as §1

[8] = tested on: Morganella morganii IFO 3848; details: IFO3848; Morganella morganii IFO 3848, Gram -
Procedure: as §1

[9] = tested on: Proteus mirabilis IFO 3849; details: IFO3849; Proteus mirabilis IFO 3849, Gram -
Procedure: as §1

Proteus vulgaris OX-19 = details: OX19; Proteus vulgaris OX-19, Gram -; read-out: Minimum inhibitory concentration (MIC)
Procedure: as §1

[10] = tested on: Pseudomonas aeruginosa E-2; details: E2; Pseudomonas aeruginosa E-2, Gram -
Procedure: as §1

[11] = tested on: Pseudomonas aeruginosa IFO 3445; details: Pseudomonas aeruginosa, IFO3445, Pseudomonas aeruginosa IFO 3445, Gram -
Procedure: as §1

[12] = tested on: Pseudomonas aeruginosa NCTC 10490; details: Pseudomonas aeruginosa, NCTC10490, Pseudomonas aeruginosa NCTC 10490, Gram -
Procedure: as §1

[13] = tested on: Salmonella typhimurium IID 971; details: Salmonella enterica, Salmonella typhimurium IID 971, Gram -; read-out: Minimum inhibitory concentration (MIC)
Procedure: as §1

[14] = tested on: Serratia marcescens IAM 1184; details: Serratia marcescens, IAM1184, Serratia marcescens IAM 1184, Gram -
Procedure: as §1

Shigella sonnei EW-33 = details: EW33; Shigella sonnei EW-33, Gram -
Procedure: as §1

[15] = tested on: Staphylococcus aureus FDA 209P JC-1; details: FDA209P; Staphylococcus aureus FDA 209P JC-1, Gram +
Procedure: as §1

[16] = tested on: Staphylococcus aureus IID 803
Procedure: as §1

[17] = tested on: Staphylococcus epidermidis IAM-1296; details: Staphylococcus epidermidis, IAM1296, Staphylococcus epidermidis IAM-1296, Gram +
Procedure: as §1

[18] = tested on: Streptococcus faecalis IID 682; details: Enterococcus faecalis, IID682, Streptococcus faecalis IID 682, Gram +
Procedure: as §1

[19] = PCI602, Klebsiella pneumoniae PCI 602, Gram -, read-out: Minimum inhibitory concentration (MIC)
[20] = IID803, Staphylococcus aureus IID 803, Gram +, read-out: Minimum inhibitory concentration (MIC)
[21] = ATCC6633, Bacillus subtilis ATCC 6633, Gram +, read-out: Minimum inhibitory concentration (MIC)

Compound | MIC [1] [µg/mL] | MIC [3] [µg/mL] | MIC [4] [µg/mL] | MIC (Enterobacter cloacae 963) [µg/mL] | MIC (Escherichia coli KC-14) [µg/mL] | MIC [5] [µg/mL] | MIC [6, 19] [µg/mL] | MIC [7] [µg/mL] | MIC [8] [µg/mL] | MIC [9] [µg/mL] | MIC (Proteus vulgaris OX-19) [µg/mL] | MIC [10] [µg/mL] | MIC [11] [µg/mL] | MIC [12] [µg/mL] | MIC [13] [µg/mL] | MIC [14] [µg/mL] | MIC (Shigella sonnei EW-33) [µg/mL] | MIC [15] [µg/mL] | MIC [17] [µg/mL] | MIC [18] [µg/mL] | further results
O=C(O)c1c(=O)c2cc(F)c(N3CCN(O)CC3)c3c2n2c(csc12)CO3 [Compound (F), 9,1-Epoxymethano-7-fluoro-8-(4-hydroxy-1-piperazinyl)-5-oxo-5H-thiazolo[3,2-a]quinoline-4-carboxylic acid.1/4hydrate] | 1.56 | 0.2 | 0.1 | 0.2 | 0.1 | 0.2 | 0.025 | 6.25 | 0.1 | 0.2 | 0.05 | 1.56 | 1.56 | 0.78 | 0.05 | 0.78 | 0.05 | 0.39 | 1.56 | 1.56 | MIC ([2]; Bacillus subtilis, ATCC6633, read-out: Minimum inhibitory concentration (MIC)): 0.1 µg/mL; MIC [16, 20]: 0.39 µg/mL
O=C(O)c1c(=O)c2cc(F)c(N3CCCC3)c3c2n2c(csc12)CO3 [Compound (G), 9,1-Epoxymethano-7-fluoro-8-(1-pyrrolidinyl)-5-oxo-5H-thiazolo[3,2-a]quinoline-4-carboxylic acid] | 0.2 (≈ 0.555 µM) | 3.13 (≈ 8.69 µM) | 0.1 (≈ 0.277 µM) | 0.39 (≈ 1.08 µM) | 0.2 (≈ 0.555 µM) | 0.2 (≈ 0.555 µM) | 0.1 (≈ 0.277 µM) | 3.13 | 0.2 (≈ 0.555 µM) | 0.39 (≈ 1.08 µM) | 0.1 (≈ 0.277 µM) | 1.56 (≈ 4.33 µM) | 1.56 (≈ 4.33 µM) | 0.78 (≈ 2.16 µM) | 0.1 (≈ 0.277 µM) | 1.56 (≈ 4.33 µM) | 0.1 (≈ 0.277 µM) | 0.025 | 0.05 | 0.2 | MIC [2, 21]: 0.025 µg/mL (≈ 0.0694 µM); MIC ([16]; Staphylococcus aureus, IID803, read-out: Minimum inhibitory concentration (MIC)): 0.05 µg/mL (≈ 0.139 µM)
O=C(O)c1c(=O)c2cc(F)c(N3CCC(O)C3)c3c2n2c(csc12)CO3 (stereo not shown) [Compound (H), 9,1-Epoxymethano-7-fluoro-8-(3-hydroxy-1-pyrrolidinyl)-5-oxo-5H-thiazolo[3,2-a]quinoline-4-carboxylic acid] | 0.1 (≈ 0.266 µM) | 0.39 (≈ 1.04 µM) | 0.1 (≈ 0.266 µM) | 0.1 (≈ 0.266 µM) | 0.05 (≈ 0.133 µM) | 0.05 (≈ 0.133 µM) | 0.006 (≈ 0.0159 µM) | 0.78 | 0.1 (≈ 0.266 µM) | 0.1 (≈ 0.266 µM) | 0.0125 (≈ 0.0332 µM) | 0.39 (≈ 1.04 µM) | 0.39 (≈ 1.04 µM) | 0.39 (≈ 1.04 µM) | 0.0125 (≈ 0.0332 µM) | 0.39 (≈ 1.04 µM) | 0.05 (≈ 0.133 µM) | 0.025 | 0.2 | 0.2 | MIC [2, 21]: 0.006 µg/mL (≈ 0.0159 µM); MIC [16, 20]: 0.025 µg/mL (≈ 0.0664 µM)
NC1CCN(c2c(F)cc3c(=O)c(C(=O)O)c4scc5n4c3c2OC5)C1 (stereo not shown) [Compound (I), 9,1-Epoxymethano-7-fluoro-8-(3-amino-1-pyrrolidinyl)-5-oxo-5H-thiazolo[3,2-a]quinoline-4-carboxylic acid] | 0.78 (≈ 2.08 µM) | 0.2 (≈ 0.533 µM) | 0.1 (≈ 0.266 µM) | 0.2 (≈ 0.533 µM) | 0.1 (≈ 0.266 µM) | 0.2 (≈ 0.533 µM) |  | 1.56 | 0.2 (≈ 0.533 µM) | 0.39 (≈ 1.04 µM) | 0.2 (≈ 0.533 µM) | 0.78 (≈ 2.08 µM) | 0.78 (≈ 2.08 µM) | 0.39 (≈ 1.04 µM) | 0.1 (≈ 0.266 µM) | 0.78 (≈ 2.08 µM) | 0.1 (≈ 0.266 µM) | 0.2 | 0.78 | 0.78 | MIC [2, 21]: 0.2 µg/mL (≈ 0.533 µM); MIC ([6]; PCI602, read-out: Minimum inhibitory concentration (MIC)): 0.05 µg/mL (≈ 0.133 µM); MIC [16, 20]: 0.39 µg/mL (≈ 1.04 µM)
